Read-outs that look alike come from different tables or passages of the source.
Experiments:
[1] = molecular target: T1, cyclin D1/cdk 4 enzyme (Homo sapiens, UniProt P11802); test: CDK4 ELISA kinase assay (phospho-Rb ser 795 detection); assay type: biochemical
T1 construct: made in house; host or cells: Sf9 insect cells, recombinant baculovirus
How it was run: (§1)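 Partially purified Sf9-expressed cyclin D1/CDK4, cyclin E/CDK2 or cyclin B/CDK1 phosphorylated plate-bound GST-Rb C-terminal fragment with 200 μM ATP at 30° C for 1 h.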

[2] = molecular target: T2, cyclin E/CDK2 enzyme (Homo sapiens, UniProt P24941); test: CDK2 ELISA kinase assay (phospho-Rb ser 795 detection); assay type: biochemical
T2 construct: made in house; host or cells: Sf9 insect cells, recombinant baculovirus
How it was run: as §1

[3] = molecular target: T3, cyclin B/CDK1 enzyme (Homo sapiens, UniProt P06493); test: CDK1 ELISA kinase assay (phospho-Rb ser 795 detection); assay type: biochemical
T3 construct: purchased New England BioLabs; host or cells: Sf9 insect cells, recombinant baculovirus
How it was run: as §1

[4] = test system: BT474; test: Cytotoxicity assay (SRB), BT474; assay type: cell-based; details: Homo sapiens, BT-474, 144 h, read-out: In Vitro Cellular Activity IC50 BT474
How it was run: (§2)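 Overnight-seeded monolayers (4000–12000 cells/well by line) receive compound in 5% FBS medium at 37 °C, 7% CO2. After 3 d, or 6 d for BT474, cellular protein is fixed with cold TCA, stained with SRB and read at 540 nm against untreated wells.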

[5] = test system: HCT-116; test: Cytotoxicity assay (SRB), HCT-116; assay type: cell-based; details: Homo sapiens, HCT-116, 72 h, read-out: In Vitro Cellular Activity IC50 HCT116
How it was run: as §2

[6] = test system: LoVo; test: Cytotoxicity assay (SRB), LoVo; assay type: cell-based; details: Homo sapiens, LoVo, 72 h, read-out: In Vitro Cellular Activity IC50 LOVO
How it was run: as §2

[7] = test system: MCF-7; test: Cytotoxicity assay (SRB), MCF-7; assay type: cell-based; details: Homo sapiens, MCF7, 72 h, read-out: In Vitro Cellular Activity IC50 MCF-7
How it was run: as §2

[8] = In Vitro Enzyme Assays, 200 μM ATP, read-out: CDK4 IC50
[9] = In Vitro Enzyme Assays, read-out: CDK2 IC50
[10] = In Vitro Enzyme Assays, read-out: CDK1 IC50
[11] = In Vitro Enzyme Assay, cyclin D1/cdk 4, read-out: CDK4 IC50
[12] = In Vitro Enzyme Assay, cyclin E/CDK2, read-out: CDK2 IC50
[13] = In Vitro Enzyme Assay, cyclin B/CDK1, read-out: CDK1 IC50

T1 sequence (P11802 whole entry, species assumed): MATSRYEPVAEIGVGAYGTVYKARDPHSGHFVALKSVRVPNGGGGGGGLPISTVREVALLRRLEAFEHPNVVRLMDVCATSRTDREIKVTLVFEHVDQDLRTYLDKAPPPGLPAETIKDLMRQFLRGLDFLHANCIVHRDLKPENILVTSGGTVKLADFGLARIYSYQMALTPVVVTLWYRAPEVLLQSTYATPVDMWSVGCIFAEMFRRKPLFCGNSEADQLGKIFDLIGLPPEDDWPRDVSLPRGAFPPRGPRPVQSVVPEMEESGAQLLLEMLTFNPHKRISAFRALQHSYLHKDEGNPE
T1 sequence (P24385 whole entry partner, species assumed): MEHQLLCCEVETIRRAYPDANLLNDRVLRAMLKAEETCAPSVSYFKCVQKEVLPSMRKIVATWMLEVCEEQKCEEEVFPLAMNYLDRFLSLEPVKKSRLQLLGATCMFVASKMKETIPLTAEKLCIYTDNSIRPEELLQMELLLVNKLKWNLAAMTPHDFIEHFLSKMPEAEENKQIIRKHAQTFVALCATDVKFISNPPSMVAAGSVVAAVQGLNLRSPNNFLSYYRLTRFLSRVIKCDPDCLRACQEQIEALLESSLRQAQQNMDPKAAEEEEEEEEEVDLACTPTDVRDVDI
T3 sequence (P06493 whole entry): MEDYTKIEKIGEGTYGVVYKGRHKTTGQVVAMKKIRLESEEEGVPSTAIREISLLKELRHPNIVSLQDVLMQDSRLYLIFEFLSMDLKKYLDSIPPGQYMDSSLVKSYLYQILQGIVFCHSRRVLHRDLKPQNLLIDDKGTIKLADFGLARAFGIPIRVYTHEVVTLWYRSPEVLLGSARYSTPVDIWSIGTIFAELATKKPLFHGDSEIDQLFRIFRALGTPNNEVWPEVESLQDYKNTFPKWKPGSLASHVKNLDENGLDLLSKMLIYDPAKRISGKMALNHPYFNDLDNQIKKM
T3 sequence (P14635 whole entry partner): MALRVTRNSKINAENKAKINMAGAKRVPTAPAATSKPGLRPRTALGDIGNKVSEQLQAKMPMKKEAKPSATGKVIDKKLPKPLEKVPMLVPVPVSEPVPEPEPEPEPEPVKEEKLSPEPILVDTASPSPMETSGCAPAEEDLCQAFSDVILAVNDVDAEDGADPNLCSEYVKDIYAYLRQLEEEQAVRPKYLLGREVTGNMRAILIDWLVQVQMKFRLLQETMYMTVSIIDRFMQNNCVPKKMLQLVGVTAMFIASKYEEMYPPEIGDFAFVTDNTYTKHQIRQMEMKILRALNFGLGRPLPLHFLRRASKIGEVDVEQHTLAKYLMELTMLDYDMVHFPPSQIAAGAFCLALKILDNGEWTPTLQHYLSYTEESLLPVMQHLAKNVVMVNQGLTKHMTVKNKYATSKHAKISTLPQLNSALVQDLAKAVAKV

Row | SMILES | IC50 [1, 8] [µM] | IC50 [2, 9] [µM] | IC50 [3, 10] [µM] | IC50 ([4]; BT474 cells, 6 days, SRB) [µM] | IC50 ([5]; HCT116 cells, 3 days, SRB) [µM] | IC50 ([6]; LoVo cells, 3 days, SRB) [µM] | IC50 ([7]; MCF-7 cells, 3 days, SRB) [µM] | melting point | IC50 [4] [µM] | IC50 [5] [µM] | IC50 [6] [µM] | IC50 [7] [µM] | IC50 [1, 11] [µM] | IC50 [2, 12] [µM] | IC50 [3, 13] [µM]
1 | O=C1NC(=O)c2ccc(-c3ccsc3)cc2/C1=C/Nc1ccc(N2CCC(N3CCCC3)CC2)c(F)c1 [Example 406, (4Z)-4-({[3-Fluoro-4-(4-pyrrolidin-1-ylpiperidin-1-yl)phenyl]amino}methylene)-6-thien-3-ylisoquinoline-1,3(2H,4H)-dione] | 0.09 | 49.7 | 31.7 | 3.9 | 2.6 | 2.7 | 3.4 | 200 to 201 °C |  |  |  |  |  |  | 
2 | O=C1NC(=O)c2ccc(Br)cc2/C1=C/Nc1ccc(N2CCC(N3CCCC3)CC2)nc1 [Example 407, (4Z)-6-Bromo-4-({[6-(4-pyrrolidin-1-ylpiperidin-1-yl)pyridin-3-yl]amino}methylene)isoquinoline-1,3(2H,4H)-dione] | 1.6 | > 50 | > 50 | 10.2 | 3.8 | 8.5 | 9.7 | 214 to 215 °C |  |  |  |  |  |  | 
3 | O=C1NC(=O)c2ccc(-c3ccsc3)cc2/C1=C/Nc1ccc(N2CCC(N3CCCC3)CC2)nc1 [Example 408] | 0.12 | > 50 | > 50 |  |  |  |  | 203 to 204 °C | 2.4 | 2.5 | 2.6 | 5.1 |  |  | 
4 | CN(C)C1CCN(Cc2ccc(N/C=C3\C(=O)NC(=O)c4ccc(I)cc43)cc2)C1 (stereo not shown) [Example 422, (4Z)-4-{[(4-{[3-(Dimethylamino)pyrrolidin-1-yl]methyl}phenyl)amino]methylene}-6-iodoisoquinoline-1,3(2H,4H)-dione] | 0.29 | > 50 | > 50 | 3.7 | 2 | 3.8 | 5.6 | 134 to 135 °C |  |  |  |  |  |  | 
5 | CN(C)C[C@@H]1CCCN1Cc1ccc(N/C=C2\C(=O)NC(=O)c3ccc(I)cc32)cc1 [Example 423] | 1.4 | > 50 | > 50 | 5.4 | 3.8 | 4.5 | 4.3 | 130 to 131 °C |  |  |  |  |  |  | 
6 | CN(C)CCCN1CCC(c2ccc(N/C=C3\C(=O)NC(=O)c4ccc(I)cc43)cc2)CC1 [Example 425, (4Z)-4-{[(4-{1-[3-(Dimethylamino)propyl]piperidin-4-yl}phenyl)amino]methylene}-6-iodoisoquinoline-1,3(2H,4H)-dione] | 0.36 | 37.1 | 44.4 | 1.5 | 0.6 | 1.2 | 2.6 | 139 to 140 °C |  |  |  |  |  |  | 
7 | O=C1NC(=O)c2ccc(I)cc2/C1=C/Nc1ccc(CN2CCCCC2CO)cc1 (stereo not shown) [Example 439, (4Z)-4-{[(4-{[2-(Hydroxymethyl)piperidin-1-yl]methyl}phenyl)amino]methylene}-6-iodoisoquinoline-1,3(2H,4H)-dione] | 0.86 | > 50 | > 50 | 0.38 | 3.5 | 2.5 | 0.75 | 205 to 206 °C |  |  |  |  |  |  | 
8 | O=C1NC(=O)c2ccc(I)cc2/C1=C/Nc1ccc(CN2CCC(O)CC2)cc1 [Example 440, (4Z)-4-[({4-[(4-Hydroxypiperidin-1-yl)methyl]phenyl}amino)methylene]-6-iodoisoquinoline-1,3(2H,4H)-dione] | 0.35 | 19.3 | 27.7 | 1.6 | 3.2 | 4 | 1.6 | 255 to 256 °C |  |  |  |  |  |  | 
9 | CN1CCN(c2ccc(N/C=C3\C(=O)NC(=O)c4ccc(Br)cc43)nc2)CC1 [Example 442, (4Z)-6-Bromo-4-({[5-(4-methylpiperazin-1-yl)pyridin-2-yl]amino}methylene)isoquinoline-1,3(2H,4H)-dione] | 3.3 | 25.3 | 15.8 | 3.7 | 1.1 | 4.1 | 2.4 | 191 to 192 °C |  |  |  |  |  |  | 
10 | CN1CCN(c2ccc(N/C=C3\C(=O)NC(=O)c4ccc(-c5coc(C=O)c5)cc43)nc2)CC1 [Example 448, 4-[(4Z)-4-({[5-(4-Methylpiperazin-1-yl)pyridin-2-yl]amino}methylene)-1,3-dioxo-1,2,3,4-tetrahydroisoquinolin-6-yl]-2-furaldehyde] | 0.04 | > 50 | 10 | 6.6 | 2.4 | 4.1 | 5 | 183 to 184 °C |  |  |  |  |  |  | 
11 | CN1CCCC1c1ccc(N/C=C2\C(=O)NC(=O)c3ccc(-n4cccc4)cc32)nc1 (stereo not shown) [Example 459] |  |  |  | 17.3 | 13 | 9.5 | 10.7 | 186 to 196 °C (dec.) |  |  |  |  | 3.7 | > 50 | > 50
12 | CN1CCCC1c1ccc(N/C=C2\C(=O)NC(=O)c3ccc(I)cc32)nc1 (stereo not shown) [Example 460, (Z)-6-Iodo-4-((5-(1-methylpyrrolidin-2-yl)pyridin-2-ylamino)methylene)isoquinoline-1,3(2H,4H)-dione] |  |  |  | 10 | 8.3 | 9.4 | 10.3 | 174 to 206 °C (dec.) |  |  |  |  | 18.3 | > 50 | > 50
13 | COC[C@@H]1CCCN1Cc1ccc(N/C=C2\C(=O)NC(=O)c3ccc(-c4ccco4)cc32)cc1 [Example 467, (4Z)-6-(2-Furyl)-4-{[(4-{[(2S)-2-(methoxymethyl)pyrrolidin-1-yl]methyl}phenyl)amino]methylene}isoquinoline-1,3(2H,4H)-dione] |  |  |  | 3.6 | 2.3 | 2.4 | 1.9 | 159 to 160 °C |  |  |  |  | 0.21 | > 50 | > 50
14 | C[C@@H]1CN(c2ccc(N/C=C3\C(=O)NC(=O)c4ccc(-c5ccoc5)cc43)nc2)C[C@H](C)N1 [Example 468, (4Z)-4-[({5-[(3R,5S)-3,5-Dimethylpiperazin-1-yl]pyridin-2-yl}amino)methylene]-6-(3-furyl)isoquinoline-1,3(2H,4H)-dione] |  |  |  | 2.1 | 1.1 | 1.6 | 1.5 | 230 to 231 °C |  |  |  |  | 0.17 | > 50 | > 50

From US7713994B2 (Wyeth LLC, priority 2005, dated 2010)
